According to patent US9339543B2, “Pharmaceutical compositions that inhibit disproportionation” (Merck Sharp & Dohme Corp., priority 2011, dated 2016):

What was measured:
[1] = XRPD of stressed pioglitazone HCl binary/acidified compacts (free base formation); type: physicochemical; conditions: for Inhibition of disproportionation via acidification (Table 6 and FIGS. 2 and 3): organic acid in a 1:1 weight ratio with the carboxylate excipient, NIR and XRPD; for Inhibition of disproportionation by organic acid (XRPD, FIG. 2): pioglitazone HCl compacts containing MgSt with organic acids, 40° C./75% RH open dish
Protocol: (§1) An understanding of pioglitazone HCl salt disproportionation was obtained by studying each excipient individually. All of the API and excipient powders were gravimetrically dispensed into 1-dram glass vials using the Symyx Powdernium powder dispensing robot. Binary mixtures containing 250 mg of pioglitazone HCl salt and approximately 30 mg of the excipients were dispensed to create a 9:1 weight ratio mixture. Pharmaceutically relevant formulation matrix samples, or pseudo formulations, were also prepared. The compact target weight was 280 mg with a final composition of 45% of pioglitazone HCl salt, 25% avicel, 25% mannitol and 5% of the remaining excipients.
(§2) Upon completion of the powder dispensing, the vials were removed from the robot and mixed using a Resodyn Acoustic Mixer (LabRAM). The powders were mixed for 30 seconds at 30% intensity to produce homogeneous mixtures. The powders were then poured from the DRAM vial into a ½ inch die. A single compact from each DRAM vial was manually compressed using a compression force of 2000-3000 lbs and a dwell time of 5 seconds. Compacts were stressed at 40° C./35% RH and 40° C./75% RH. The sample preparation and reference for each compact can be seen in Table 2.
XRPD spectroscopy was also used to quantify the level of disproportionation in selected stressed samples of pioglitazone HCl. XRPD Spectroscopy is more sensitive to free base than NIR, making it suitable for samples with little or no disproportionation. The XRPD spectra were collected on the Panalytical X'pert Pro diffractometer with Cu Ka1 radition of 1.5406 Å in the transmission mode. The samples were scanned between a two theta range of 4 and 20° at a step size of 0.0167° for one hour at ambient conditions. The tube power used was 45 kV and 40 mA. In the XRPD pattern, the pioglitazone crystalline free base form has four specific peaks at 7.8weak, 9.1strong, 10.3strong and 15.1moderate 2-theta. The pioglitazone HCl form has a doublet peak centered at 8.6 2-theta.

[2] = cited from earlier work
[3] = aqueous; cited from earlier work
[4] = FT-NIR monitoring of loss of HCl salt in stressed pioglitazone HCl binary/acidified compacts; type: physicochemical; conditions: MgSt and organic acid compacts, 40° C./75% RH open dish
Protocol: as §1, §2
FT-NIR reflectance spectroscopy was used to monitor the loss of HCl salt throughout the binary and pseudo formulation studies. […]

Row | Molecule | Inhibition of disproportionation via acidification (Table 6 and FIGS. 2 and 3) [1] | Inhibition of disproportionation by organic acid (XRPD, FIG. 2) [1] | pKa Values (first value) [2] | Aq. Sol. [3] | pKa Values (second value) [2] | Inhibition of disproportionation by organic acid (NIR, Table 6) [4] | pKa Values (third value) ([2]; third pKa printed in cell)
1 | O=C(O)/C=C/C(=O)O [Fumaric Acid] | not effective in inhibiting disproportionation | do not effectively inhibit disproportionation | 3.0 | 0.0063 g/mL | – | – | –
2 | O=C(O)/C=C\C(=O)O [Maleic Acid] | completely inhibited | successfully inhibit disproportionation | – | 0.78 g/mL | 6.3 | could inhibit disproportionation | –
3 | O=C(O)C(=O)O [Oxalic Acid] | not effective in inhibiting disproportionation | do not effectively inhibit disproportionation | 1.25 | 0.14 g/mL | 4.14 | – | –
4 | O=C(O)C(O)C(O)C(=O)O (stereo not shown) [Tartaric Acid] | completely inhibited | successfully inhibit disproportionation | 3.0 | 1.3 g/mL | 4.2 | could inhibit disproportionation | –
5 | Citric Acid | not effective in inhibiting disproportionation | do not effectively inhibit disproportionation | 3.2 | – | 4.8 | – | 6.4
